Laboratory results: PMC7012052, “Discovery of antimicrobial compounds targeting bacterial type FAD synthetases” (Journal of Enzyme Inhibition and Medicinal Chemistry, 2017)
In brackets after ≈: the same amount, converted by molar mass. Structures can show the parent of a compound that is named as a salt. Where two headings read alike, the source gives them in different places. Marks after values point to notes of the source that are not given here.

Assays:
S. pneumoniae ATCC 49619 = assay: MIC by resazurin microplate assay (broth microdilution); assay type: cell-based, Streptococcus pneumoniae
[1] = system: M. tuberculosis ATCC 27,294; assay: as above; assay type: cell-based, Mycobacterium tuberculosis
SpnFADS RFK activity = SpnFADS RFK activity (Streptococcus pneumoniae, UniProt A0A0H2UPY5); assay: biochemical
Procedure: (§1) Then, the RFK and FMNAT reactions were individually assayed in the presence of the HTS hits at 25 °C. Reaction mixtures contained 50 µM ATP, 5 µM RF, 0.4 µM CaFADS in 20 mM PIPES, pH 7.0, 0.8 mM MgCl2, when assaying the RFK activity, and 50 µM ATP, 10 µM FMN, 0.4 µM CaFADS in 20 mM PIPES, pH 7.0, 10 mM MgCl2 when measuring the FMNAT reaction. […] Finally, reactions were stopped by boiling the samples at 100 °C for 5 min, and the precipitated protein was eliminated through centrifugation. The transformation of RF into FMN or FAD was evaluated through flavins separation by HPLC, as previously described. […] When assaying the HTS hits against the FMNAT activity of SpnFADS, similar conditions were used but samples contained 3 mM sodium dithionite to maintain the flavin in its reduced state. Data were processed as previously reported. All the experiments were performed in triplicate.
(§2) Experiments were performed and analysed through HPLC as described above. Positive controls (without any hit compound) were included in every reaction set. DMSO concentration was kept at 2.5% in all samples. All the experiments were performed in triplicate.

SpnFADS FMNAT activity = SpnFADS FMNAT activity (Streptococcus pneumoniae, UniProt A0A0H2UPY5); assay: biochemical; conditions: for activity at 100 µM: 100 μM of each compound, n = 3, mean ± SD
Procedure: as §1, §2

[2] = system: C. ammoniagenes ATCC 6872; assay: MIC by resazurin microplate assay (broth microdilution); assay type: cell-based, Corynebacterium ammoniagenes; conditions: Corynebacterium ammoniagenes, ATCC6872, 16 h
CaFADS RFK activity = biological target: T1, CaFADS RFK activity (Corynebacterium ammoniagenes, UniProt Q59263); assay: RFK activity of CaFADS in the presence of HTS hits (flavins separated by HPLC); assay type: biochemical; conditions: pH 7, read-out: % Residual RFK activity
T1 construct: Recombinant CaFADS was overexpressed in BL21 (DE3) E. coli cells and purified as previously described; made in house; host or cells: E. coli BL21 (DE3)
Procedure: as §1

CaFADS FMNAT activity = biological target: T2, CaFADS FMNAT activity (Corynebacterium ammoniagenes, UniProt Q59263); assay: FMNAT activity of CaFADS: residual activity, IC50, inhibition mechanism (HPLC); assay type: biochemical; conditions: for Inhibition mechanism / Ki: CaFADS FMNAT; for Ki: global Lineweaver–Burk fit; for remaining activity at 250 µM: pH 7, read-out: % Residual FMNAT activity; for remaining activity at 50 µM: read-out: Residual activity (FMNAT)
T2 construct: Recombinant CaFADS was overexpressed in BL21 (DE3) E. coli cells and purified as previously described; made in house; host or cells: E. coli BL21 (DE3)
Procedure: as §1, §2
All the experiments were carried out in 20 mM PIPES, 10 mM MgCl2, pH 7.0, 2.5% DMSO at 25 °C, being the final reaction volume 500 µl. The reactions were initiated by addition of CaFADS at a final concentration of ∼40 nM, followed by 1 min incubation. The flavin composition of the supernatant was analysed as previously described. All the experiments were performed in triplicate. The effect of the inhibitors on Km and Vmax was determined by fitting the data sets to the Michaelis–Menten model. Additionally, data were globally fit to Lineweaver–Burk equations for competitive, uncompetitive, non-competitive or mixed inhibition, yielding Ki, as well as Ki′ when applying, for each compound (Equations (1–4), respectively).

CaFADS = biological target: T3, CaFADS (Corynebacterium ammoniagenes, UniProt Q59263); assay: Isothermal titration calorimetry (ITC) of hits binding to CaFADS; conditions: ITC 25 °C
T3 construct: Recombinant CaFADS was overexpressed in BL21 (DE3) E. coli cells and purified as previously described; made in house; host or cells: E. coli BL21 (DE3)
Procedure: ITC experiments were performed to characterise the protein’s affinity for the selected compounds, as also the thermodynamic parameters that drive the interaction. Experiments were carried out in an AutoITC200 (MicroCal) thermostated at 25 °C. In these experiments, ∼400 µM of each compound were used to titrate ∼25 µM CaFADS contained in a 200 µL cell. However, when saturation of the protein was not reached, higher concentrations of compounds were employed. The titrations were performed by stepwise injections of the titrating compound. Up to 19 injections of 2 µl were added to the cell sample and mixed using a 1000 rpm stirrer syringe. The compounds and the protein were dissolved in 20 mM PIPES, pH 7.0, 10 mM MgCl2 and degassed prior to titration. DMSO was added to the protein and ligand samples, until reach a final concentration of 3%. The association constant (Ka), the enthalpy variation (ΔH) and the binding stoichiometry (N), were obtained through non-lineal regression of the data to a model for one or two independent binding sites, implemented in Origin 7.0 (OriginLab) as previously described[27]^,[29]. The entropic contribution (−TΔS), the Gibbs free energy (ΔG) and the dissociation constant (Kd) were obtained through essential thermodynamic equations.

[3] = Streptococcus pneumoniae, ATCC49619, 10 h; read-out: Minimal inhibitory concentration (MIC) S. pneumoniae
[4] = Mycobacterium tuberculosis, ATCC27, 144 h; read-out: Minimal inhibitory concentration (MIC) M. tuberculosis
[5] = SpnFADS, compounds assayed 0–100 μM, 25 °C, read-out: RFK activity IC50
[6] = read-out: RFK activity Res. activity
[7] = SpnFADS, 25 °C, read-out: FMNAT activity Res. activity
[8] = SpnFADS, compounds assayed 0–100 μM, 25 °C, read-out: FMNAT activity IC50
[9] = read-out: Minimal inhibitory concentration (MIC) C. ammoniagenes
[10] = saturating ATP (regarding the FMN substrate)
[11] = saturating FMN (regarding the ATP substrate)
[12] = saturating ATP, varying FMN, inhibitor 0.2 μM
[13] = saturating ATP, varying FMN, inhibitor […]
[14] = saturating FMN, varying ATP, inhibitor 0.2 μM
[15] = saturating FMN, varying ATP, inhibitor 0.4 μM
[16] = saturating FMN, varying ATP, inhibitor […]
[17] = for 24: Site 1–2, average value where N ≈ 2
[18] = read-out: Minimal inhibitory concentration (MIC) C. ammoniagenes, assayed 0.125–64 μM, 16 h at 37 °C, BHI

SpnFADS FMNAT activity, sequence (A0A0H2UPY5 entry or part of it): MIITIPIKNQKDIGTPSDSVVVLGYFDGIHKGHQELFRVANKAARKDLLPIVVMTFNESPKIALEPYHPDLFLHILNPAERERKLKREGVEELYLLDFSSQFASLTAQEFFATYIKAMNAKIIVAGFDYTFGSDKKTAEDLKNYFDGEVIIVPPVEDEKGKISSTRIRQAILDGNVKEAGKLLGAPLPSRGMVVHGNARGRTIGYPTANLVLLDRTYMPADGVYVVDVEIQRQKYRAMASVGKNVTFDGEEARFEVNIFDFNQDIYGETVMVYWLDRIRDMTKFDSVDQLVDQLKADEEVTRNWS
SpnFADS RFK activity, sequence (A0A0H2UPY5 entry or part of it): as above
T2 sequence (Q59263 whole entry): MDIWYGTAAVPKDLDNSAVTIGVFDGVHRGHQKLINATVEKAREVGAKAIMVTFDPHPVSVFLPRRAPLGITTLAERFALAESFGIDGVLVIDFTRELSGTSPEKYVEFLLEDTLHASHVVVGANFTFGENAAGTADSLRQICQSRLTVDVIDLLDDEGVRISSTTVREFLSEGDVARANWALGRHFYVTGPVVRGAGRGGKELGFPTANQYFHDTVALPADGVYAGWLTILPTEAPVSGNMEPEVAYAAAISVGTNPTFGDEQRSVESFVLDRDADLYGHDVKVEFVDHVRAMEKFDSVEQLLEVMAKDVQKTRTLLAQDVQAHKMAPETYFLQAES
T3 sequence (Q59263 whole entry): as above
T1 sequence (Q59263 whole entry): as above

SMILES	MIC (S. pneumoniae ATCC 49619; [3]) [µM]	MIC [1, 4] [µM]	IC50 (SpnFADS RFK activity; [5]) [µM]	activity at 100 µM (SpnFADS RFK activity; [6]) [%]	activity at 100 µM (SpnFADS FMNAT activity; [7]) [%]	IC50 (SpnFADS FMNAT activity; [8]) [µM]	MIC [2, 9] [µM]	remaining activity at 250 µM (CaFADS RFK activity) [%]	IC50 (CaFADS FMNAT activity) [µM]	Inhibition mechanism (CaFADS FMNAT activity; [10])	Inhibition mechanism (CaFADS FMNAT activity; [11])	Ki (CaFADS FMNAT activity; saturating ATP, varying FMN) [µM]	Ki (CaFADS FMNAT activity; saturating FMN, varying ATP) [µM]	remaining activity at 250 µM (CaFADS FMNAT activity) [%]	remaining activity at 50 µM (CaFADS FMNAT activity) [%]	apparent kcat (CaFADS FMNAT activity; [12]) [s⁻¹]	apparent kcat (CaFADS FMNAT activity; [13]) [s⁻¹]	apparent kcat (CaFADS FMNAT activity; [14]) [s⁻¹]	apparent kcat (CaFADS FMNAT activity; [15]) [s⁻¹]	apparent kcat (CaFADS FMNAT activity; [16]) [s⁻¹]	further results
COc1cc(-c2ccc(/N=N/c3ccc4c(S(=O)(=O)O)cc(S(=O)(=O)O)c(N)c4c3O)c(OC)c2)ccc1/N=N/c1ccc2c(S(=O)(=O)O)cc(S(=O)(=O)O)c(N)c2c1O [HTS hit 24, Chicago sky blue 6B]	> 64	16 to 32 (≈ 14.5 to 29 µg/mL)	> 100	84 ± 9	0	70 ± 6	16 to 32 (≈ 14.5 to 29 µg/mL)	≥ 75	0.4 ± 0.1	Non-competitive	Uncompetitive	0.07 ± 0.01	0.08 ± 0.03	≤ 5	3.6 ± 0.2	0.163 ± 0.0217	0.405 ± 0.0683	0.0717 ± 0.0067	0.03 ± 0.0017	0.12 ± 0.0067	apparent kcat (CaFADS FMNAT activity; saturating ATP, varying FMN, inhibitor 0.4 μM): 0.0933 ± 0.01 s⁻¹; apparent kcat (CaFADS FMNAT activity; saturating ATP, varying FMN, inhibitor 0.6 μM): 0.095 ± 0.0217 s⁻¹; apparent kcat (CaFADS FMNAT activity; saturating FMN, varying ATP, inhibitor 0.04 μM): 0.375 ± 0.08 s⁻¹; N (binding stoichiometry) (CaFADS; 3% DMSO, for 24: Site 1–2): ≈ 2; ΔG (CaFADS; Site 3): -5.2 ± 0.7 kcal/mol; ΔH (CaFADS; Site 3): 18.4 ± 2.2 kcal/mol; −TΔS (CaFADS; Site 3): -23.6 ± 1.9 kcal/mol; N (binding stoichiometry) (CaFADS; Site 3 (low affinity site)): ≈ 1; ΔG (CaFADS; [17]): −8.1 ± 1.0^a kcal/mol; ΔH (CaFADS; [17]): −4.2 ± 0.5^a kcal/mol; −TΔS (CaFADS; [17]): −3.9 ± 0.5^a kcal/mol; Kd (CaFADS; Kd, 3% DMSO, for 24: Site 1–2, average value for two hit molecules where N ≈ 2): 1.1 ± 0.1 µM; Kd (CaFADS; Kd, Site 3 (low affinity site)): 161 ± 20 µM
Cc1cc2c(C(C)C)c(O)c(O)c(C=O)c2c(O)c1-c1c(C)cc2c(C(C)C)c(O)c(O)c(C=O)c2c1O [HTS hit 27, gossypol]								≥ 75	0.5 ± 0.1	Non-competitive	Competitive	0.08 ± 0.01	0.06 ± 0.01	≤ 5	6.9 ± 0.8	0.252 ± 0.025	0.167 ± 0.013	0.37 ± 0.0233	0.302 ± 0.0267	0.285 ± 0.055	MIC (S. pneumoniae ATCC 49619; Streptococcus pneumoniae, ATCC49619, 10 h, read-out: Minimal inhibitory concentration (MIC) S. pneumoniae): > 64 µM; MIC ([1]; Mycobacterium tuberculosis, ATCC27, 144 h, read-out: Minimal inhibitory concentration (MIC) M. tuberculosis): > 64 µM; IC50 (SpnFADS RFK activity; RFK activity IC50, SpnFADS, compounds assayed 0–100 μM, 25 °C): 6 ± 1 µM; remaining activity at 100 µM (SpnFADS RFK activity; [6]): 25 ± 4%; IC50 (SpnFADS FMNAT activity): 51 ± 6 µM; remaining activity at 100 µM (SpnFADS FMNAT activity; read-out: FMNAT activity Res. activity): 0%; MIC [2, 18]: ~64 µM (≈ 33.2 µg/mL); apparent kcat (CaFADS FMNAT activity; saturating ATP, varying FMN, inhibitor 0.05 μM): 0.36 ± 0.0483 s⁻¹; apparent kcat (CaFADS FMNAT activity; saturating ATP, varying FMN, inhibitor 0.1 μM): 0.268 ± 0.0283 s⁻¹; apparent kcat (CaFADS FMNAT activity; saturating ATP, varying FMN, inhibitor 1 μM): 0.108 ± 0.0033 s⁻¹; apparent kcat (CaFADS FMNAT activity; saturating FMN, varying ATP, inhibitor 0.1 μM): 0.38 ± 0.0217 s⁻¹; apparent kcat (CaFADS FMNAT activity; saturating FMN, varying ATP, inhibitor 1 μM): 0.208 ± 0.0083 s⁻¹; N (binding stoichiometry) (CaFADS; 3% DMSO, for 24: Site 1–2): ≈ 2; Kd (CaFADS; 3% DMSO, for 24: Site 1–2, average value for two hit molecules where N ≈ 2, read-out: Kd): 0.7 ± 0.07 µM; ΔG (CaFADS; [17]): −8.4 ± 0.9^a kcal/mol; ΔH (CaFADS; [17]): −3.1 ± 0.1^a kcal/mol; −TΔS (CaFADS; [17]): −5.3 ± 0.4^a kcal/mol
CCCCC(CC)CNC(=N)NC(=N)NCCCCCCNC(=N)NC(=N)NCC(CC)CCCC (centres unmarked) [HTS hit 33, alexidine dihydrochloride]	0.5	2 to 4	33 ± 4		93 ± 11	> 100	0.125	≤ 5						≤ 5							Minimal inhibitory concentration (MIC) M. tuberculosis ([1]; assayed 0.125–64 μM; 6 days at 37 °C, Middlebrook 7H9): below 8 μM; activity at 100 µM (SpnFADS RFK activity; SpnFADS, 100 μM of each compound, 25 °C, n = 3, mean ± SD, read-out: RFK activity Res. activity): 26 ± 3%; MIC [2, 18]: < 2 µM
CC(C)n1c(/C=C/C(O)CC(O)CC(=O)O)c(-c2ccc(F)cc2)c2ccccc21 (centres unmarked) [HTS hit 37, fluvastatin sodium salt]	> 64	> 64		96 ± 10	0	7 ± 1	> 64	≤ 5						≤ 5							IC50 (SpnFADS RFK activity): > 100 µM
